Measurements from patent publication US4490388A, “Amidine compound and anticomplement agent comprising same” (Torii & Co., Ltd., priority 1981, dated 1984).
Where “and” joins values, the source holds several entries; their conditions need not be identical. Equal entries are not always repeated. Where two headings read alike, the source gives them in different places.

Legend:
C1r = molecular target: T1, C1r (Homo sapiens, UniProt P00736); assay: Anti-C1 esterase activity, C1r (hydrolysis of AAME); format: biochemical; conditions: for IC50: molar concentration inhibiting 50% of AAME hydrolysis, read-out: Anti-C1 activity, C1r id50; for inhibition at 10 µM: at 1×10^-5 M, read-out: Anti-C1 activity, C1r percent inhibition
T1 sequence (P00736 464-705 limits assumed): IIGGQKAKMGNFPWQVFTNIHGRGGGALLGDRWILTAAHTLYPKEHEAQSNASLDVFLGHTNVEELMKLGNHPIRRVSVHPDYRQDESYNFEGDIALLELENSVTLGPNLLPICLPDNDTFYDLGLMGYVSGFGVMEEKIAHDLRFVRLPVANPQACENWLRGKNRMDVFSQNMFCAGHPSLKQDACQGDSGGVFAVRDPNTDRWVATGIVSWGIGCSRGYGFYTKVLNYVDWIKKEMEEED
T1 sequence (P00736 18-463 partner limits assumed): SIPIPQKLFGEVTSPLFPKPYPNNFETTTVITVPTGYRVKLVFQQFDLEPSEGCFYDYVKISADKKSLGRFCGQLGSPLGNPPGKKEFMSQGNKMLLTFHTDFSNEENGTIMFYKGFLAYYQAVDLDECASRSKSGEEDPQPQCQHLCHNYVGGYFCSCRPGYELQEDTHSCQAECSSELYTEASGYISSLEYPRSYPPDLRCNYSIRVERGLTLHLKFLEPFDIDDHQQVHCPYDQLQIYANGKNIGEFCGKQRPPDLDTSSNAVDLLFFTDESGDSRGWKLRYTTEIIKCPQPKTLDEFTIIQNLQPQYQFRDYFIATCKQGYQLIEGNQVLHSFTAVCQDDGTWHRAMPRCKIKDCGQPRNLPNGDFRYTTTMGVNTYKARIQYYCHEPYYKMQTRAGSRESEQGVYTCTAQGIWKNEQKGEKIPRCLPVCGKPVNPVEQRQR
Description: The anti-C1 esterase (C1r, C1s) activity was determined according to the method of Okamura et al. [K. Okamura, M. Muramatsu and B. Fujii, Biochem. Biophys. […] The figures in Table 2 have the following meanings:
C1r: Molar concentration of the test compound which inhibits 50% of the ability of C1r to hydrolyse AAME (acetylarginin methyl ester) (id50).

complement [1] = assay: Inhibition of complement mediated hemolysis; format: cell-based; conditions: read-out: Inhibition of complement mediated hemolysis (%)
Description: The complement mediated hemolysis is widely used as a means to determine the titration of complement. The principle of this method is based on the fact that hemolysis is caused by the activation of complement, when the latter is added to a complex (immune complex) of erythrocytes and the autibody thereof. The degree of hemolysis varies in proportion to the amount of complement added. Therefore, when a known amount of complement admixed with a C1 esterase inhibitor is used, the hemolysis must be suppressed in proportion to the inhibitory activity.
The anti-C1 esterase (C1r, C1s) activity was determined according to the method of Okamura et al. [K. Okamura, M. Muramatsu and B. Fujii, Biochem. Biophys. […] The inhibition of complement mediated hemolysis was determined according to the method of Baker et al. [B. R. Baker and E. H. Erickson, J. Med. Chem., 12, 408-414 (1969)].

Plasmin = Plasmin (Homo sapiens, UniProt P00747); assay: Anti-plasmin activity (hydrolysis of TAME); format: biochemical; conditions: molar concentration inhibiting 50% of TAME hydrolysis; read-out: id50, Plasmin
Description: (§1) The anti-trypsin, anti-plasmin, anti-kallikrein and anti-thrombin activities were determined according to the method of Muramatsu et al. [M. Muramatsu, T. Onishi, S. Makino, Y. Hayashi and S. Fujii, J. of Biochem., 58, 214 (1965)]. The data summarized in Table 1 are expressed in terms of molar concentration (id50) of the test compound which inhibits 50% of the activity of each enzyme to hydrolyze TAME (tosylarginine methyl ester). The compound No. corresponds to the compound number shown in Examples.

C1s = molecular target: T2, C1s (Homo sapiens, UniProt P09871); assay: Anti-C1 esterase activity, C1s (hydrolysis of ATEE); format: biochemical
T2 sequence (P09871 438-688 limits assumed): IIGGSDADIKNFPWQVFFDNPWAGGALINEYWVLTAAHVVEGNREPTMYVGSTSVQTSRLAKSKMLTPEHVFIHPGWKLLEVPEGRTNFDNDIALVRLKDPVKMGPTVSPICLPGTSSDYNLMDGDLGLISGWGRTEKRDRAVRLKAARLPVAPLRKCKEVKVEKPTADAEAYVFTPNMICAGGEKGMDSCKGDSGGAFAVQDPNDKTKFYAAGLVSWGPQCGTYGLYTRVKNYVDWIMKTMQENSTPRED
T2 sequence (P09871 16-437 partner limits assumed): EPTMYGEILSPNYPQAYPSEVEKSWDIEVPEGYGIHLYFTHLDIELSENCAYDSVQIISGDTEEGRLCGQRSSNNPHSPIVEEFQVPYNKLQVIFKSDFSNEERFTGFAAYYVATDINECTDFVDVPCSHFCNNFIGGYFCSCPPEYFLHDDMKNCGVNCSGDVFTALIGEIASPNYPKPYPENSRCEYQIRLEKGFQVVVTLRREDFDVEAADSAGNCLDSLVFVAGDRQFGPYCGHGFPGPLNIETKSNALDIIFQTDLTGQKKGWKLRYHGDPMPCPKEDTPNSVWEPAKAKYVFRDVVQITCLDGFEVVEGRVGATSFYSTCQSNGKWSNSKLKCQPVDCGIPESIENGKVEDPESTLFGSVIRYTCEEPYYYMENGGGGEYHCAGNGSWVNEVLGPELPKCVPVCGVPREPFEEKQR
Description: The anti-C1 esterase (C1r, C1s) activity was determined according to the method of Okamura et al. [K. Okamura, M. Muramatsu and B. Fujii, Biochem. Biophys. Acta, 295, 252-257 (1973)]. The inhibition of complement mediated hemolysis was determined according to the method of Baker et al. [B. R. Baker and E. H. Erickson, J. Med. Chem., 12, 408-414 (1969)]. The figures in Table 2 have the following meanings:
C1s: Molar concentration of the test compound which inhibits 50% of the ability of C1s to hydrolyse ATEE (acetyltyrosin ethyl ester).

Trypsin = molecular target: T3, Trypsin (Bos taurus, UniProt P00760); assay: Anti-trypsin activity (hydrolysis of TAME); format: biochemical; conditions: for IC50: molar concentration inhibiting 50% of TAME hydrolysis, read-out: id50, Trypsin
T3 sequence (P00760 24-246): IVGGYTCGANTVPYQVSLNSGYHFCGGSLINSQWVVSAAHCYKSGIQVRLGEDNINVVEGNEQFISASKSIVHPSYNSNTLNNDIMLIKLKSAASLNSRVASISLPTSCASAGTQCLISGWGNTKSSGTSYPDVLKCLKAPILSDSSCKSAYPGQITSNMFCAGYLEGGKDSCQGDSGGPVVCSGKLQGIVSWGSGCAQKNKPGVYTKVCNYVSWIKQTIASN
Description: as §1

Thrombin = Thrombin (Bos taurus, UniProt P00735); assay: Anti-thrombin activity (hydrolysis of TAME); format: biochemical
Description: as §1

[2] = Toxicity, median lethal dose (LD50); conditions: in vivo
Forssman shock = Forssman shock (survival time after hemolysin); format: in vivo, guinea pig (male Hartlay); conditions: for time elapsed until death, average: control average 361 sec.
Source text: Quite different from other animals, guinea pig has on the surface of its organs a specific antigen called Forssman antigen which specifically reacts with the antibody of sheep erythrocyte. Forssman shock is based on the above principle and is a shock caused by the administration of antibody of sheep erythrocyte to a guinea pig. The Forssman shock was investigated in detail by many researches and it was definitely shown that this shock is a model case where the complement plays the principal part and that the shock is associated with a classical pathway in which the complement system is activated progressively starting from C1. Since the participation of complement in autoimmune diseases has been established, the Forssman shock can be said to be a useful means for testing a drug for autoimmune diseases. A drug effective for the treatment of Forssman shock is useful as a drug of autoimmune diseases. [Anti-trypsin, anti-plasmin, anti-kallikrein and anti-thrombin activities]
The experiment was performed according to the method of I. G. Offerness et al. [Biochem. Pharmacol., 27 (14), 1873-1878 (1978)]. Male Hartlay guinea pig of about 300 g in body weight was used. Each guinea pig of the control group was administered intravenously with 0.5 ml (minimum dose to cause the shock) of hemolysin (commercial hemolysin, 5,000 U as assayed by the method of Ogata) and the time elapsed until death was observed. For the test group, each guinea pig was administered intravenously with the test compound 5 minutes before the administration of hemolysin and the time (second) elapsed until death was observed.

complement [3] = conditions: Y. Takada et al., Immunology 34, 509-515 (1978); cited from earlier work

Chain of Plasmin (P00747 581-810 limits assumed): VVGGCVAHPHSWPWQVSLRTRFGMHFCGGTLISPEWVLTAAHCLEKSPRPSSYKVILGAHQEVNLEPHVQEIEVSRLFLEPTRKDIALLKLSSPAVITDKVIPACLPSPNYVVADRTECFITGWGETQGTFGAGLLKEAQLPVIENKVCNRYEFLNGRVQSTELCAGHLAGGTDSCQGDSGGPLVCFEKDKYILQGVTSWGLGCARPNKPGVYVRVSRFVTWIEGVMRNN
Chain of Plasmin (P00747 97-580 partner limits assumed): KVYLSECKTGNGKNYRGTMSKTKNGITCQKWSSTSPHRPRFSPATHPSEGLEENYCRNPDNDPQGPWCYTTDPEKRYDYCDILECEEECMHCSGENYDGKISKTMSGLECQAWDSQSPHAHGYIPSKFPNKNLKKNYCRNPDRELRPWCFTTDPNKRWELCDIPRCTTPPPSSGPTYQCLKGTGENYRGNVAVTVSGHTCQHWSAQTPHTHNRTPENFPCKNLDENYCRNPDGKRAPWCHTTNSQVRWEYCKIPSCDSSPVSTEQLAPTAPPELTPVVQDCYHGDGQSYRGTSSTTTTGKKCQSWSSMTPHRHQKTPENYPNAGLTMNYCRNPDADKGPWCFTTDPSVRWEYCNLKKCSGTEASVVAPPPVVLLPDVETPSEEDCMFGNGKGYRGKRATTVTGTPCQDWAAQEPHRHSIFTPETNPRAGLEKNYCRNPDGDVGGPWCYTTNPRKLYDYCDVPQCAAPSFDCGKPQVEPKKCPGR

SMILES	IC50 (C1r)	inhibition at 100 µM (complement [1]; 1 × 10^-4 M)	inhibition at 10 µM (complement [1]; 1 × 10^-5 M)	inhibition at 1 µM (complement [1]; 1 × 10^-6 M)	inhibition at 0.1 µM (complement [1]; 1 × 10^-7 M)	IC50 (Plasmin)	IC50 (Trypsin)	IC50 (Thrombin)	inhibition at 10 µM (C1r)	inhibition at 0.1 µM (complement [1])	also measured
N=C(N)C=Cc1ccc(OC(=O)c2ccccc2)cc1 [Compound 12, 4-(β-amidinoethenyl)-phenyl benzoate]	0.8 µM	100%	100%	54%	11%	2 µM	0.6 µM	3 µM			IC50 (C1s): 0.3 µM
N=C(N)C=Cc1ccc(OC(=O)c2ccc(OCc3ccccc3)cc2)cc1 [Compound 26]		38%	14%	6%	0%	> 10 µM	0.2 µM	> 10 µM	37%		
N=C(N)C=Cc1ccc(OC(=O)c2ccc(NC(=N)N)cc2)cc1 [Compound 35, 4-(β-amidinoethenyl)phenyl 4-guanidinobenzoate]	4 µM					0.9 µM	0.02 µM	1 µM		46%	LD50 ([2]; ip): 133 mg/kg; LD50 ([2]; po): 1200 mg/kg; time elapsed until death (Forssman shock; 1 mg/kg i.v. 5 minutes before hemolysin, individual animals 1-4): 490 s and 375 s and 255 s and 285 s; time elapsed until death, average (Forssman shock; 1 mg/kg i.v.): 351 s; survival of individual animal (Forssman shock; 3 mg/kg i.v. 5 minutes before hemolysin, animal 2): Survival; time elapsed until death (Forssman shock; 3 mg/kg i.v. 5 minutes before hemolysin, individual animals): 365 s and 4000 s and 690 s; time elapsed until death, average (Forssman shock; 3 mg/kg i.v.): 528 s; inhibition at 1 µM (complement [1]): 97%; inhibition at 10 µM (complement [1]): 100%; inhibition at 100 µM (complement [1]): 100%; IC50 (C1s; molar concentration inhibiting 50% of ATEE hydrolysis, read-out: Anti-C1 activity, C1s id50): 0.3 µM
N=C(N)C=Cc1ccc(OC(=O)CCCCCNC(=O)OCc2ccccc2)cc1 [Compound 7, 4-(β-amidinoethenyl)phenyl 6-benzyloxycarbonylaminocaproate]		98%	64%	13%	14%	5 µM	7 µM	> 10 µM	31%		
N=C(N)C=Cc1ccc(OC(=O)C=Cc2cccc(C(F)(F)F)c2)cc1 [Compound 41]		71%	10%	10%	0%	3 µM	3 µM	> 10 µM	20%		
CC(=O)N[C@@H](CC(C)C)C(=O)N[C@@H](CC(C)C)C(=O)N[C@H](C=O)CCCNC(=N)N [Leupeptin, reference compound]	200 µM									0%	anti-complement activity (in words) (complement [3]): anti-complement activity; inhibition at 1 µM (complement [1]): 0%; inhibition at 10 µM (complement [1]): 52%; inhibition at 100 µM (complement [1]): 97%; IC50 (C1s): 20 µM
CC(C)Cc1ccc(C(C)C(=O)Oc2ccc(C=CC(=N)N)cc2)cc1 (stereo not drawn) [Compound 14]		0%	74%	10%	0%	8 µM	9 µM	8 µM	38%		
CSc1ccc(C(=O)Oc2ccc(C=CC(=N)N)cc2)cc1 [Compound 28]	0.9 µM	97%	71%	34%		1 µM		3 µM		23%	inhibition at 10 µM (Trypsin; at 1×10^-5 M, read-out: percentage inhibition, Trypsin): 26%
N=C(N)C=Cc1ccc(OC(=O)c2ccc(CN)cc2)cc1 [Compound 34]		100%	99%	99%	86%						LD50 ([2]; ip): 200 mg/kg; LD50 ([2]; po): 2500 mg/kg
